# Laboratory results as given in patent US20170348398A1, “COMPOSITIONS AND METHODS FOR DECREASING BLOOD GLUCAGON LEVELS” (Vanderbilt University, priority 2016, published 2017).
# B1: activin A: Recombinant mouse Activin A protein (R&D Biosystems) (protein, UniProt Q04998 309-424, looked up)
# Inhibin beta A chain: GLECDGKVNICCKKQFFVSFKDIGWNDWIIAPSGYHANYCEGECPSHIAGTSGSSLSFHSTVINHYRMRGHSPFANLKSCCVPTKLRPMSMLYYDDGQNIIKKDIQNMIVEECGCS
# modifications: Inhibin beta A chain
# Tested on: α-cells
# Experiment: in vitro α-cell proliferation assay (cultured mouse islets, cytospin, Ki67+ glucagon+ counting)
# Assay type: cell-based
# Conditions: for α-cell proliferation when the amino acid is lowered to Gcgr+/+ serum levels: all other amino acids kept at high (Gcgr−/− serum) concentrations; for linear regression of amino acid concentration in media versus α-cell proliferation: media conditions of Table 1; for alpha cell proliferation at high levels of the amino acid: high levels of the single amino acid
# Description: To maximize the ability to quantify proliferating α-cells intact mouse islets were first cultured in media supplemented with Gcgr−/− or Gcgr+/+ mouse serum, dispersing the islets into cells, and then the cells centrifuged into a focused monolayer of cells using a cytospin centrifuge (FIG. 1A). […] To further maximize the throughput of this assay, a cytonuclear algorithm was developed to automate quantification of α-cell proliferation in cytospin islet images (FIG. 7C).
# Pancreatic islets were isolated from male 8-14 week old C57B16/J mice (Jackson Laboratory, ME) and cultured in various media conditions for 3 days. […] For complete amino acid content in each media condition, see Table 1. For serum fractionation, serum was centrifuged for 1 hour at 2000×g at room temperature in a 10 kDa molecular weight cutoff spin column (Millipore, Billerica, Mass.). […] For lipid removal, serum was treated with Cleanascite reagent (Biotech Support Group, Monmouth Junction, N.J.) prior to islet culture at a 1:1 ratio according to the vendor's protocol.
# Dispersed islet cells were recovered by centrifugation in RPMI media containing 5.6 mM glucose, 10% FBS, and 1% Penicillin/Streptomycin. The resulting cell pellet was resuspended in 100 ul of media and centrifuged onto a glass slide using a cytospin (Thermo Scientific, Waltham, Mass.) centrifuge. Air-dried slides were stored at −80° C. until use, thawed, and immediately fixed in 4% paraformaldehyde before immunocytochemistry. Slides were mounted with Aqua-Poly/Mount (Warrington, Pa.).
# Cytospin slides were imaged using a Leica Microsystems Epifluorescent Microscope DM1 6000B. Tiled images were analyzed by a cytonuclear algorithm developed using the […] Software package (Indica Labs) (FIG. 7A). A glucagon surface was created by mapping glucagon immunoreactivity. DAPI and Ki67 positive cells were identified using a spot mapping algorithm. α-cells were identified by masking the glucagon surface on the DAPI staining and then creating a pseudospot where each α-cell was identified. Colocalization was determined by coregistering glucagon pseudospots with Ki67 spots. Each image was then manually checked for accuracy. For all islet culture experiments, a minimum of 500 α-cells counted per replicate (i.e. n=1) were required to be included in an experiment.
Molecule,alpha cell proliferation at high levels of the amino acid,other results
NC(=O)NCCC[C@H](N)C(=O)O [Citrulline],–,"α-cell proliferation (cultured mouse islets, 3 days): failed to stimulate α-cell proliferation"
N[C@@H](CCC(=O)O)C(=O)O [L-glutamic acid],–,α-cell proliferation when the amino acid is lowered to Gcgr+/+ serum levels: not required for increased α-cell proliferation; linear regression of amino acid concentration in media versus α-cell proliferation: significantly and positively correlated
NC(=O)CC[C@H](N)C(=O)O [L-glutamine],–,"α-cell proliferation when the amino acid is lowered to Gcgr+/+ serum levels: abolished the stimulation of α-cell proliferation; non α-cell proliferation (cultured mouse islets, 3 days): no effect; α-cell proliferation (cultured mouse islets, 3 days): in a dose-dependent fashion increased α-cell proliferation; linear regression of amino acid concentration in media versus α-cell proliferation: significantly and positively correlated"
CC(C)C[C@H](N)C(=O)O [L-leucine],–,α-cell proliferation when the amino acid is lowered to Gcgr+/+ serum levels: not required for increased α-cell proliferation; linear regression of amino acid concentration in media versus α-cell proliferation: significantly and positively correlated
C[C@H](N)C(=O)O [alanine],not,"α-cell proliferation (cultured mouse islets, 3 days): failed to stimulate α-cell proliferation"
N=C(N)NCCC[C@H](N)C(=O)O [arginine],stimulated alpha cell proliferation,–
NC(=O)C[C@H](N)C(=O)O [asparagine],not,–
NCC(=O)O [glycine],not,–
N[C@@H](Cc1c[nH]cn1)C(=O)O [histidine],not,–
CC[C@H](C)[C@H](N)C(=O)O [isoleucine],not,–
NCCCC[C@H](N)C(=O)O [lysine],not,–
CSCC[C@H](N)C(=O)O [methionine],not,–
NCCC[C@H](N)C(=O)O [ornithine],not,"α-cell proliferation (cultured mouse islets, 3 days): failed to stimulate α-cell proliferation"
O=C(O)[C@@H]1CCCN1 [proline],not,–
N[C@@H](CO)C(=O)O [serine],not,–
N[C@@H](Cc1ccc(O)cc1)C(=O)O [tyrosine],not,–
CC(C)[C@H](N)C(=O)O [valine],not,–
B1,–,"α-cell proliferation (cultured mouse islets, 3 days): did not stimulate α-cell proliferation"
